Values joined by “and” are separate entries in the source; they are usually repeats but may differ in a detail not shown here. Equal values may be shown once.
Test system: Alternaria solani
Experiment: Fungicidal activity, fungicide growth rate method, AS
Format: cell-based
Conditions: Alternaria solani, 50 μg/mL; read-out: fungicidal activity (growth inhibition rate), AS

Which inhibition at 50 µg/mL does the source give for `C=CC[C@@H]1C[C@]2(O)CCO[C@@]23C[C@@H](O)[C@H](Cl)C[C@H]13` [Zyj07-101] here?
The inhibition at 50 µg/mL was 5%.

With `C=CC[C@@H]1C[C@]2(OC(C)=O)C[C@H](OC(C)=O)O[C@@]23C[C@H]2O[C@H]2C[C@H]13` [Zyj07-65-2] as the molecule, how does the inhibition at 50 µg/mL read?
The inhibition at 50 µg/mL was 0%.

With `C=CC[C@@H]1C[C@]2(O)CCO[C@@]23C[C@@H](Cl)[C@H](O)C[C@H]13` [Zyj07-100] as the molecule, how does the inhibition at 50 µg/mL read?
The inhibition at 50 µg/mL was 14%.

Test system: Botrytis cinerea
Experiment: Fungicidal activity, fungicide growth rate method, BC
Format: cell-based
Conditions: Botrytis cinerea, 50 μg/mL; read-out: fungicidal activity (growth inhibition rate), BC

With `C=CC[C@@H]1C[C@]2(O)CCO[C@@]23C[C@@H](O)[C@H](Cl)C[C@H]13` [Zyj07-101] as the molecule, how does the inhibition at 50 µg/mL read?
Its inhibition at 50 µg/mL is greater than 50%.

For `C=CC[C@@H]1C[C@]2(OC(C)=O)C[C@H](OC(C)=O)O[C@@]23C[C@H]2O[C@H]2C[C@H]13` [Zyj07-65-2], which inhibition at 50 µg/mL is on record?
Its inhibition at 50 µg/mL is 41%.

With `C=CC[C@@H]1C[C@]2(O)CCO[C@@]23C[C@@H](Cl)[C@H](O)C[C@H]13` [Zyj07-100] as the molecule, how does the inhibition at 50 µg/mL read?
The inhibition at 50 µg/mL was 14%.

Test system: Ostrinia furnacalis
Experiment: Insecticidal activity against Ostrinia furnacalis
Format: in vivo
Conditions: Ostrinia furnacalis; 100 μg/mL; read-out: insecticidal activity, Ostrinia furnacalis

With `C=CC[C@@H]1C[C@]2(O)CCO[C@@]23C[C@@H](O)[C@H](Cl)C[C@H]13` [Zyj07-101] as the molecule, how does the pest or weed control at 100 µg/mL read?
The pest or weed control at 100 µg/mL was 15%.

With `C=CC[C@@H]1C[C@]2(OC(C)=O)C[C@H](OC(C)=O)O[C@@]23C[C@H]2O[C@H]2C[C@H]13` [Zyj07-65-2] as the molecule, how does the pest or weed control at 100 µg/mL read?
Its pest or weed control at 100 µg/mL is 5%.

With `C=CC[C@@H]1C[C@]2(O)CCO[C@@]23C[C@@H](Cl)[C@H](O)C[C@H]13` [Zyj07-100] as the molecule, how does the pest or weed control at 100 µg/mL read?
The pest or weed control at 100 µg/mL was 0%.

Test system: wheat Gibberella zeae
Experiment: microbe, parasite or virus in culture
Format: cell-based
Conditions: Fusarium graminearum, read-out: fungicidal activity (growth inhibition rate), GZ, 50 μg/mL

With `C=CC[C@@H]1C[C@]2(O)CCO[C@@]23C[C@@H](O)[C@H](Cl)C[C@H]13` [Zyj07-101] as the molecule, how does the inhibition at 50 µg/mL read?
The inhibition at 50 µg/mL was 3%.

With `C=CC[C@@H]1C[C@]2(OC(C)=O)C[C@H](OC(C)=O)O[C@@]23C[C@H]2O[C@H]2C[C@H]13` [Zyj07-65-2] as the molecule, how does the inhibition at 50 µg/mL read?
Its inhibition at 50 µg/mL is 0%.

With `C=CC[C@@H]1C[C@]2(O)CCO[C@@]23C[C@@H](Cl)[C@H](O)C[C@H]13` [Zyj07-100] as the molecule, how does the inhibition at 50 µg/mL read?
The inhibition at 50 µg/mL was 13%.

Test system: Physalospora piricola
Experiment: Fungicidal activity, fungicide growth rate method, PP
Format: cell-based
Conditions: 50 μg/mL; read-out: fungicidal activity (growth inhibition rate), PP

For `C=CC[C@@H]1C[C@]2(O)CCO[C@@]23C[C@@H](O)[C@H](Cl)C[C@H]13` [Zyj07-101], which inhibition at 50 µg/mL is on record?
The inhibition at 50 µg/mL was greater than 50%.

Which inhibition at 50 µg/mL does the source give for `C=CC[C@@H]1C[C@]2(OC(C)=O)C[C@H](OC(C)=O)O[C@@]23C[C@H]2O[C@H]2C[C@H]13` [Zyj07-65-2] here?
The inhibition at 50 µg/mL was 12%.

With `C=CC[C@@H]1C[C@]2(O)CCO[C@@]23C[C@@H](Cl)[C@H](O)C[C@H]13` [Zyj07-100] as the molecule, how does the inhibition at 50 µg/mL read?
The inhibition at 50 µg/mL was 29%.

Test system: Helicoverpa armigera (Hübner)
Experiment: Insecticidal activity against Helicoverpa armigera (Hübner)
Format: in vivo
Conditions: Helicoverpa armigera; 100 μg/mL; read-out: insecticidal activity, Helicoverpa armigera (Hübner)

With `C=CC[C@@H]1C[C@]2(O)CCO[C@@]23C[C@@H](O)[C@H](Cl)C[C@H]13` [Zyj07-101] as the molecule, how does the pest or weed control at 100 µg/mL read?
The pest or weed control at 100 µg/mL was 20%.

With `C=CC[C@@H]1C[C@]2(OC(C)=O)C[C@H](OC(C)=O)O[C@@]23C[C@H]2O[C@H]2C[C@H]13` [Zyj07-65-2] as the molecule, how does the pest or weed control at 100 µg/mL read?
The pest or weed control at 100 µg/mL was 10%.

For `C=CC[C@@H]1C[C@]2(O)CCO[C@@]23C[C@@H](Cl)[C@H](O)C[C@H]13` [Zyj07-100], which pest or weed control at 100 µg/mL is on record?
The pest or weed control at 100 µg/mL was 0%.

Test system: not given
Experiment: not given
Conditions: not given

With `C=CC[C@@H]1C[C@]2(O)CCO[C@@]23C[C@@H](O)[C@H](Cl)C[C@H]13` [Zyj07-101] as the molecule, how does the melting point read?
The melting point was 143 to 144 °C.

For `C=CC[C@@H]1C[C@]2(O)CCO[C@@]23C[C@@H](Cl)[C@H](O)C[C@H]13` [Zyj07-100], which melting point is on record?
The melting point was 134 to 136 °C.

Test system: Tobacco Mosaic Virus
Experiment: Anti-TMV inactivation activity on tobacco plants
Format: in vivo
Design: concentration or dose not given beside the values
Conditions: compound mixed with TMV solution 30 minutes, lesions checked three days later

For `C=CC[C@@H]1C[C@]2(OC(C)=O)C[C@H](OC(C)=O)O[C@@]23C[C@H]2O[C@H]2C[C@H]13` [Zyj07-65-2], which “TMV inactivation (anti-TMV activity)” value is on record?
The value was 29%.

Test system: Cercospora arachidicola
Experiment: Fungicidal activity, fungicide growth rate method, CA
Format: cell-based
Conditions: Mycosphaerella arachidis, 50 μg/mL; read-out: fungicidal activity (growth inhibition rate), CA

Which inhibition at 50 µg/mL does the source give for `C=CC[C@@H]1C[C@]2(O)CCO[C@@]23C[C@@H](O)[C@H](Cl)C[C@H]13` [Zyj07-101] here?
The inhibition at 50 µg/mL was 14%.

With `C=CC[C@@H]1C[C@]2(OC(C)=O)C[C@H](OC(C)=O)O[C@@]23C[C@H]2O[C@H]2C[C@H]13` [Zyj07-65-2] as the molecule, how does the inhibition at 50 µg/mL read?
The inhibition at 50 µg/mL was 24%.

For `C=CC[C@@H]1C[C@]2(O)CCO[C@@]23C[C@@H](Cl)[C@H](O)C[C@H]13` [Zyj07-100], which inhibition at 50 µg/mL is on record?
Its inhibition at 50 µg/mL is 46%.

Test system: Pellicularia sasakii
Experiment: Fungicidal activity, fungicide growth rate method, PS
Format: cell-based
Conditions: 50 μg/mL; read-out: fungicidal activity (growth inhibition rate), PS

With `C=CC[C@@H]1C[C@]2(O)CCO[C@@]23C[C@@H](O)[C@H](Cl)C[C@H]13` [Zyj07-101] as the molecule, how does the inhibition at 50 µg/mL read?
The inhibition at 50 µg/mL was 0%.

For `C=CC[C@@H]1C[C@]2(OC(C)=O)C[C@H](OC(C)=O)O[C@@]23C[C@H]2O[C@H]2C[C@H]13` [Zyj07-65-2], which inhibition at 50 µg/mL is on record?
The inhibition at 50 µg/mL was 0%.

Which inhibition at 50 µg/mL does the source give for `C=CC[C@@H]1C[C@]2(O)CCO[C@@]23C[C@@H](Cl)[C@H](O)C[C@H]13` [Zyj07-100] here?
The inhibition at 50 µg/mL was 23%.

Test system: Rhizoctonia cerealis
Experiment: Fungicidal activity, fungicide growth rate method, RC
Format: cell-based
Conditions: Ceratobasidium cereale, 50 μg/mL; read-out: fungicidal activity (growth inhibition rate), RC

For `C=CC[C@@H]1C[C@]2(O)CCO[C@@]23C[C@@H](O)[C@H](Cl)C[C@H]13` [Zyj07-101], which inhibition at 50 µg/mL is on record?
Its inhibition at 50 µg/mL is 29%.

Which inhibition at 50 µg/mL does the source give for `C=CC[C@@H]1C[C@]2(OC(C)=O)C[C@H](OC(C)=O)O[C@@]23C[C@H]2O[C@H]2C[C@H]13` [Zyj07-65-2] here?
Its inhibition at 50 µg/mL is 7%.

For `C=CC[C@@H]1C[C@]2(O)CCO[C@@]23C[C@@H](Cl)[C@H](O)C[C@H]13` [Zyj07-100], which inhibition at 50 µg/mL is on record?
Its inhibition at 50 µg/mL is 0%.

Test system: Mythimna separate (Walker)
Experiment: Insecticidal activity against Mythimna separate (Walker)
Format: in vivo
Conditions: Mythimna, 100 μg/mL; read-out: insecticidal activity, Mythimna separate (Walker)

For `C=CC[C@@H]1C[C@]2(O)CCO[C@@]23C[C@@H](O)[C@H](Cl)C[C@H]13` [Zyj07-101], which pest or weed control at 100 µg/mL is on record?
Its pest or weed control at 100 µg/mL is greater than 30%.

For `C=CC[C@@H]1C[C@]2(OC(C)=O)C[C@H](OC(C)=O)O[C@@]23C[C@H]2O[C@H]2C[C@H]13` [Zyj07-65-2], which pest or weed control at 100 µg/mL is on record?
Its pest or weed control at 100 µg/mL is greater than 30%.

For `C=CC[C@@H]1C[C@]2(O)CCO[C@@]23C[C@@H](Cl)[C@H](O)C[C@H]13` [Zyj07-100], which pest or weed control at 100 µg/mL is on record?
Its pest or weed control at 100 µg/mL is 10%.

Test system: Caenorhabditis elegans
Experiment: Insecticidal activity against Caenorhabditis elegans
Format: in vivo
Conditions: Caenorhabditis elegans, 100 μg/mL; read-out: insecticidal activity, Caenorhabditis elegans

With `C=CC[C@@H]1C[C@]2(OC(C)=O)C[C@H](OC(C)=O)O[C@@]23C[C@H]2O[C@H]2C[C@H]13` [Zyj07-65-2] as the molecule, how does the pest or weed control at 100 µg/mL read?
Its pest or weed control at 100 µg/mL is 17%.

Test system: Apis mellifera ligustica Spin
Experiment: not given
Conditions: dosage 9.57 μg a.i./bee

With `C=CC[C@@H]1C[C@]2(OC(C)=O)C[C@H](OC(C)=O)O[C@@]23C[C@H]2O[C@H]2C[C@H]13` [Zyj07-65-2] as the molecule, how does the “Death rate after 48 h (%)” value read?
Its value is 5.0%.

Same assay, conditions: dosage 9.57 μg a.i./bee; per replicate of 10 bees

Which results are given for `C=CC[C@@H]1C[C@]2(OC(C)=O)C[C@H](OC(C)=O)O[C@@]23C[C@H]2O[C@H]2C[C@H]13` [Zyj07-65-2]?
Death number after 24 h: 0; Death number after 48 h: 0 and 1

Same assay, conditions: dosage 10.9 μg a.i./bee

With `C=CC[C@@H]1C[C@]2(OC(C)=O)C[C@H](OC(C)=O)O[C@@]23C[C@H]2O[C@H]2C[C@H]13` [Zyj07-65-2] as the molecule, how does the “Death rate after 48 h (%)” value read?
Its value is 0%.

Same assay, conditions: dosage 10.9 μg a.i./bee; per replicate of 10 bees

For `C=CC[C@@H]1C[C@]2(OC(C)=O)C[C@H](OC(C)=O)O[C@@]23C[C@H]2O[C@H]2C[C@H]13` [Zyj07-65-2], which “Death number after 24 h” value is on record?
The value was 0.

What about the “Death number after 48 h” value of the same molecule?
The value was 0.

Test system: Sclerotinia sclerotiorum
Experiment: Fungicidal activity, fungicide growth rate method, SS
Format: cell-based
Conditions: Sclerotinia sclerotiorum, 50 μg/mL

Which inhibition at 50 µg/mL does the source give for `C=CC[C@@H]1C[C@]2(OC(C)=O)C[C@H](OC(C)=O)O[C@@]23C[C@H]2O[C@H]2C[C@H]13` [Zyj07-65-2] here?
Its inhibition at 50 µg/mL is 24%.

Test system: Phytophthora infestans (Mont.) de Bary
Experiment: microbe, parasite or virus in culture
Format: cell-based
Conditions: Phytophthora infestans, read-out: fungicidal activity (growth inhibition rate), PI, 50 μg/mL

With `C=CC[C@@H]1C[C@]2(O)CCO[C@@]23C[C@@H](O)[C@H](Cl)C[C@H]13` [Zyj07-101] as the molecule, how does the inhibition at 50 µg/mL read?
The inhibition at 50 µg/mL was greater than 60%.

Which inhibition at 50 µg/mL does the source give for `C=CC[C@@H]1C[C@]2(OC(C)=O)C[C@H](OC(C)=O)O[C@@]23C[C@H]2O[C@H]2C[C@H]13` [Zyj07-65-2] here?
The inhibition at 50 µg/mL was 25%.

For `C=CC[C@@H]1C[C@]2(O)CCO[C@@]23C[C@@H](Cl)[C@H](O)C[C@H]13` [Zyj07-100], which inhibition at 50 µg/mL is on record?
Its inhibition at 50 µg/mL is 38%.
